Data published in publication PMC10461229 (Journal of Medicinal Chemistry, 2023).
Where two headings read alike, the source gives them in different places.

Tests used:
[1] = system: wild-type (WT) Mtb Erdman; assay: microbe, parasite or virus in culture; assay type: cell-based, Mycobacterium tuberculosis; conditions: read-out: MABA mean IC50 ± SD
CYP2C9 = CYP2C9 (Homo sapiens, UniProt P11712); assay: CYP2C9 inhibition in human liver microsomes; conditions: for % 4 OH-diclofenac activity: HLM
in vitro = conditions: human, Caco-2, pH 7.4
CYP3A4 = biological target: T1, CYP3A4 (Homo sapiens, UniProt P08684); assay: CYP3A4 inhibition in human liver microsomes; assay type: in vitro ADME; conditions: HLM
T1 construct: from tissue; host or cells: human liver microsomes
T1 sequence (P08684 whole entry): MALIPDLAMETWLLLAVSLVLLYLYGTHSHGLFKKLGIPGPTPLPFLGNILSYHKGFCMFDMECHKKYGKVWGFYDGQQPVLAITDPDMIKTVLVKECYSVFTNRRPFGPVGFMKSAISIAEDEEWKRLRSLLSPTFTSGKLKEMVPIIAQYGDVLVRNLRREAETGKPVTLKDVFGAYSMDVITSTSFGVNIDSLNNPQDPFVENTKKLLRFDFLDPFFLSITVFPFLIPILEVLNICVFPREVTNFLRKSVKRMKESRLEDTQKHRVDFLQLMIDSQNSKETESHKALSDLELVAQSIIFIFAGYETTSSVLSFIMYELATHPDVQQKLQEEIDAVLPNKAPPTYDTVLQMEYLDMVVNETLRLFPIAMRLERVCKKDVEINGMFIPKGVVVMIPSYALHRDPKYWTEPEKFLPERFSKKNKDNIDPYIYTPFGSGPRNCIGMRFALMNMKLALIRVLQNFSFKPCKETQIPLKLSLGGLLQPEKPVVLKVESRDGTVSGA

Mtb biofilm formation = assay: microbe, parasite or virus in culture; assay type: cell-based; conditions: Mycobacterium tuberculosis, 504 h, read-out: Biofilm inhibition IC50
IMR-90 = conditions: for IMR-90 LD50: 48 h, MTT
[2] = system: H37Rv-GFP Mtb in murine RAW 264.7 macrophages; assay type: cell-based, Mycobacterium tuberculosis
[3] = system: murine RAW 264.7 macrophages; assay: Cytotoxicity assay on murine macrophages; assay type: cell-based, mouse; conditions: 5 days, total cell number vs DMSO 1%
Method: Mouse macrophage RAW 264.7 cells (ATCC # TIB-71) were maintained in RPMI-1640 + GlutaMAX containing 10% heat-inactivated fetal bovine serum (FBS, 10270106, Gibco). Macrophages were harvested using Versene (15040033, LifeTechnologies).
For assay plate preparation, the lead compounds were diluted in DMSO (Sigma-Aldrich) to 10 mg/mL and dispensed in Echo-qualified 384-well low dead volume source plates using the Echo 550 Series Liquid Handler (Labcyte). The compounds were transferred to 384-well clear-bottom polystyrene assay plates (781091, Greiner Bio-One) using acoustic liquid handling technology. All samples were backfilled with DMSO.
The cellular suspension (50 μL containing 20,000 cells) was added to the 384-well assay plate and incubated for 5 days at 37 °C, 5% CO2. Macrophages were then stained with SYTO 60 dye (S11342, Molecular probes), followed by image acquisition and data analysis. Confocal images were recorded on an automated high-content fluorescence microscope (InCell 6500, Cytiva). A series of four pictures of each well were taken, and each image was then analyzed using the Columbus system to infer the total number of cells. Dose–response plots were generated for each compound using GraphPad Prism software.

BEAS-2B = conditions: for BEAS-2B LD50: 48 h, MTT; for Therapeutic index, LD50 in BEAS-2B / MABA IC50: 48 h treatment, MTT assay
Mtb Erdman = assay type: cell-based, Mycobacterium tuberculosis
Calu-3 cells = conditions: for Calu-3 LD50: 72 h, CellTiter-Glo, 50% decrease in cellular ATP, IMD salts; for Therapeutic index, LD50 in Calu-3 / MABA IC50: 72 h treatment, CTG assay
HEK 293 = conditions: for HEK 293 LD50: 48 h, MTT; for Therapeutic index, LD50 in HEK 293 / MABA IC50: 48 h treatment, MTT assay
Mtb katG^FS = assay type: cell-based, Mycobacterium tuberculosis
Caco-2 cells = conditions: membrane integrity control, 5 μM; cited from earlier work
[4] = Mycobacterium tuberculosis, ERDMAN

CYP2C9, sequence (P11712 whole entry): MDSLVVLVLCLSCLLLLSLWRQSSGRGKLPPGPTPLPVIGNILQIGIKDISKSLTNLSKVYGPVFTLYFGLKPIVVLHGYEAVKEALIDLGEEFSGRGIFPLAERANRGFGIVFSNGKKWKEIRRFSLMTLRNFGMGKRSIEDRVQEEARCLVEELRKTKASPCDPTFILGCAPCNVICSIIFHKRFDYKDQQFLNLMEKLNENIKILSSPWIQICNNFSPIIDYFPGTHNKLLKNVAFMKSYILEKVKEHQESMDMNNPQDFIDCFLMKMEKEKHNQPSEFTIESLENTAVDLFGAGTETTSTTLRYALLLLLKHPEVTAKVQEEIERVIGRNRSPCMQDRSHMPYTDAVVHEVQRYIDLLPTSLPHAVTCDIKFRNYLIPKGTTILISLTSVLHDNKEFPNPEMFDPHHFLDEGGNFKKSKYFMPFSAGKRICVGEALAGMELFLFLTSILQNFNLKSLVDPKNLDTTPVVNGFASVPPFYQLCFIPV

Compound | IC50 [1, 4] [µM] | IC50 [1] [µM] | IC50 (CYP2C9) [µM] | % 4 OH-diclofenac activity (CYP2C9; 1 μM compound) [%] | % 4 OH-diclofenac activity (CYP2C9; 10 μM compound) [%] | % 4 OH-diclofenac activity (CYP2C9; 100 μM compound) [%] | % 1OH-midazolam activity (CYP3A4; 1 μM compound) [%] | % 6OH-testosterone activity (CYP3A4; 1 μM compound) [%] | % 1OH-midazolam activity (CYP3A4; 10 μM compound) [%] | % 6OH-testosterone activity (CYP3A4; 10 μM compound) [%] | % 1OH-midazolam activity (CYP3A4; 100 μM compound) [%] | % 6OH-testosterone activity (CYP3A4; 100 μM compound) [%] | IC50 (Mtb biofilm formation) [µM] | IMR-90 LD50 (IMR-90) [µM] | cytotoxicity for uninfected murine RAW 264.7 macrophages [3] | BEAS-2B LD50 (BEAS-2B) [µM] | Therapeutic index, LD50 in BEAS-2B / MABA IC50 (BEAS-2B) | Calu-3 LD50 (Calu-3 cells) [µM] | Therapeutic index, LD50 in Calu-3 / MABA IC50 (Calu-3 cells) | HEK 293 LD50 (HEK 293) [µM] | other results
CC(C)(C)c1ccc(-c2nnc(SCc3cc(=O)n4c(c3C3CC3)SCC4C(=O)O)o2)cc1 (racemic) [Compound 8f, (±) 7-(((5-(4-(tert-Butyl)phenyl)-1,3,4-oxadiazol-2-yl)thio)methyl)-8-cyclopropyl-5-oxo-2,3-dihydro-5H-thiazolo[3,2-a]pyridine-3-carboxylic Acid] | 6.2 | 6.19 ± 0.67 | 10 to 100 | 100 ± 2.7 | 93 ± 6.7 | 31 ± 3.6 | 108 ± 4.1 | 98 ± 4.0 | 117 ± 1.4 | 94 ± 5.8 | 84 ± 5.0 | 60 ± 1.9 |  |  |  |  |  |  |  |  | Papp A→B (in vitro): 3.3 ×10⁻⁶ cm/s
CC(C)(C)c1ccc(-n2cc(-c3cc(=O)n4c(c3C3CC3)SCC4C(=O)O)nn2)cc1 (racemic) [Compound 15d, (±) 7-(1-(4-(tert-Butyl)phenyl)-1H-1,2,3-triazol-4-yl)-8-cyclopropyl-5-oxo-2,3-dihydro-5H-thiazolo[3,2-a]pyridine-3-carboxylic Acid] | 5.67 ± 0.82 |  | 1 to 10 | 83 ± 4.6 | 32.9 ± 1.0 | 2.61 ± 0.29 | 102 ± 1.4 | 105 ± 1.0 | 95 ± 2.7 | 101 ± 3.9 | 67 ± 1.5 | 75 ± 1.9 |  |  |  |  |  |  |  |  | Papp A→B at 2 µM (in vitro): 0.88 ×10⁻⁶ cm/s
O=C(O)C1CSc2c(C3CC3)c(-c3cc(-c4ccc5ccccc5c4)no3)cc(=O)n21 (racemic) [Compound 17h, (±) 8-Cyclopropyl-7-(3-(naphthalen-2-yl)isoxazol-5-yl)-5-oxo-2,3-dihydro-5H-thiazolo[3,2-a]pyridine-3-carboxylic Acid] | 0.703 | 0.7 ± 0.05 |  |  |  |  |  |  |  |  |  |  | 3.47 ± 1.21 | 122.5 | not cytotoxic | 143.1 | 203.5 | >250 | >355 | 101.6 | inhibition of intracellular Mtb replication in macrophages [2]: inhibited intracellular mycobacteria at concentrations lower than C10; inhibition of OD600 of Mtb cultures in the presence of tyloxapol (Mtb Erdman): neither 17h nor 17j inhibited the OD600 of Mtb cultures; Therapeutic index, LD50 in HEK 293 / MABA IC50 (HEK 293): 144.5; Mtb katG^FS CFU after 13 days, combination with INH (Mtb katG^FS): below the input dose; Mtb katG^FS CFU after 13 days, compound alone vs control (Mtb katG^FS): no difference in CFU
O=C(O)C1CSc2c(C3CC3)c(Cc3cccc4ccccc34)cc(=O)n21 (centres unmarked) [Compound C10, reference compound] | 14.4 | 14.4 |  |  |  |  |  |  |  |  |  |  | 8.28 ± 3.23 | 147.1 | not cytotoxic | 146.2 | 10.1 | 160.4 | 11.1 | 151.7 | Therapeutic index, LD50 in IMR-90 / MABA IC50 (IMR-90; 48 h treatment, MTT assay): 10.1; Therapeutic index, LD50 in HEK 293 / MABA IC50 (HEK 293): 10.5; Mtb katG^FS CFU after 13 days, combination with INH (Mtb katG^FS): did not inhibit the survival of Mtb katG^FS beyond the effect of INH alone; Mtb katG^FS CFU after 13 days, compound alone vs control (Mtb katG^FS): no difference in CFU
NNC(=O)c1ccncc1 [INH, isoniazid] |  |  |  |  |  |  |  |  |  |  |  |  |  |  |  |  |  |  |  |  | surviving Mtb katG^FS after 13 days of treatment (Mtb katG^FS): 8.09 × 10^8 CFU/mL
C[C@H](N[C@@H](CCc1ccccc1)C(=O)O)C(=O)N1CCC[C@H]1C(=O)O [enalaprilat] |  |  |  |  |  |  |  |  |  |  |  |  |  |  |  |  |  |  |  |  | Papp of enalaprilat for a tight monolayer (Caco-2 cells): < 1 × 10^–6 cm/s
